Measured values published in patent US20240343720A1, “AAK1 INHIBITOR AND USE THEREOF” (Xizang Haisco Pharmaceutical Co., Ltd., priority 2021, published 2024).

Legend:
[1] = target: hERG potassium ion channel (Homo sapiens (Human), UniProt Q12809); experiment: Test for hERG potassium ion channel (manual whole cell patch-clamp); type: cell-based; details: for IC50: CHO cells stably expressing hERG, read-out: IC50 (hERG potassium channel current); for inhibition at 40 µM: human, CHO cells stably expressing hERG potassium channel, read-out: Inhibition rate at the highest concentration tested (hERG potassium channel current)
hERG potassium ion channel, sequence (Q12809 whole entry): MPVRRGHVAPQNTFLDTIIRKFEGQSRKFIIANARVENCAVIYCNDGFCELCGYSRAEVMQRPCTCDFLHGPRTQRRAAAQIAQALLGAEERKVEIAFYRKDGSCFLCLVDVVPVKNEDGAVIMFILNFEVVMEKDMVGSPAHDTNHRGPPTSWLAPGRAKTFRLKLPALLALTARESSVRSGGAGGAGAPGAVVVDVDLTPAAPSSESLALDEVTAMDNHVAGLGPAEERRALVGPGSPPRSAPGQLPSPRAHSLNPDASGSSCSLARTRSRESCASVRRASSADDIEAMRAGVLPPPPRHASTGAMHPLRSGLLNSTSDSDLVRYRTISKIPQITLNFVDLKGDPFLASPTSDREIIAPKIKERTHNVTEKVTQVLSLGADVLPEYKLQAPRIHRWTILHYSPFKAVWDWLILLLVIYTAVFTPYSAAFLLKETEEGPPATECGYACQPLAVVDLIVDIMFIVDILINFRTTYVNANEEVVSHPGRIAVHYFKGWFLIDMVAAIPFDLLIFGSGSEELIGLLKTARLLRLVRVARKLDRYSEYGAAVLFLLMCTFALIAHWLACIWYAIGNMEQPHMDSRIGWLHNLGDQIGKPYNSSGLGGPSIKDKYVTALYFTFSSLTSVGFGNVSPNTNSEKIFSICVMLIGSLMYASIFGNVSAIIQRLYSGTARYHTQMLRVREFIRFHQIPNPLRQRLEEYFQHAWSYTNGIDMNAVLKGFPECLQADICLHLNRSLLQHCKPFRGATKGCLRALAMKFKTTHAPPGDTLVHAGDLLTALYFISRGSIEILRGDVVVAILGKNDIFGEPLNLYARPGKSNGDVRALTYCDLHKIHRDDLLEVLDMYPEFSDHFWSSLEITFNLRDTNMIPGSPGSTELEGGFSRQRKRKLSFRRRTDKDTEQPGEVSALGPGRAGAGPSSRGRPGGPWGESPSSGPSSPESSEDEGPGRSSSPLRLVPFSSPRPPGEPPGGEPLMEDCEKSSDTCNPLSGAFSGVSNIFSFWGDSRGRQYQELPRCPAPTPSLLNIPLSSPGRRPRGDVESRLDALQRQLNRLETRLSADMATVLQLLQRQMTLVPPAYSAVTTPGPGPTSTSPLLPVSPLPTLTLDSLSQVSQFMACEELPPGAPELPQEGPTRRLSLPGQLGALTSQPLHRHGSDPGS
Excerpt: Experimental platform: electrophysiological manual patch-clamp system
Cell line: Chinese hamster ovary (CHO) cell lines stably expressing hERG potassium ion channel
Experimental method: In CHO (Chinese Hamster Ovary) cells stably expressing hERG potassium channel, whole cell patch-clamp technique was used to record hERG potassium channel current at room temperature. The glass microelectrode was made of a glass electrode blank (BF150-86-10, Sutter) by a puller. The tip resistance after filling the liquid in the electrode was about 2-5 MΩ. The glass microelectrode can be connected to the patch-clamp amplifier by inserting the glass microelectrode into an amplifier probe. The clamping voltage and data recording were controlled and recorded by the pClamp 10 software through a computer. The sampling frequency was 10 kHz, and the filtering frequency was 2 kHz. After the whole cell records were obtained, the cells were clamped at −80 mV, and the step voltage that induced the hERG potassium current (IhERG) was depolarized from −80 mV to +20 mV for 2 s, then repolarized to −50 mV, and returned to −80 mV after 1 s. This voltage stimulation was given every 10 s, and the administration process was started after the hERG potassium current was confirmed to be stable (at least 1 minute). The compound was administered for at least 1 minute at each test concentration, and at least 2 cells (n≥2) were tested at each concentration.
Data processing: Data analysis processing was carried out by using pClamp 10, GraphPad Prism 5 and Excel software. The inhibition degree of hERG potassium current (peak value of hERG tail current induced at −50 mV) at different compound concentrations was calculated by the following formula: […]
wherein, Inhibition % represents the percentage of inhibition of hERG potassium current by the compound, and I and Io represent the amplitude of hERG potassium current after and before dosing, respectively.
Compound IC50 was calculated using GraphPad Prism 5 software by fitting according to the following equation: […]
Among the equation, X represents the Log value of the tested concentration of the test sample, Y represents the inhibition percentage at the corresponding concentration, and Bottom and Top represent the minimum and maximum inhibition percentage, respectively.

[2] = target: AAK1 (Homo sapiens (Human), UniProt Q2M2I8); experiment: In vitro AAK1 enzyme activity assay (ADP-Glo); type: biochemical; details: read-out: Inhibitory activity against AAK1 IC50
AAK1, sequence (Q2M2I8 27-365): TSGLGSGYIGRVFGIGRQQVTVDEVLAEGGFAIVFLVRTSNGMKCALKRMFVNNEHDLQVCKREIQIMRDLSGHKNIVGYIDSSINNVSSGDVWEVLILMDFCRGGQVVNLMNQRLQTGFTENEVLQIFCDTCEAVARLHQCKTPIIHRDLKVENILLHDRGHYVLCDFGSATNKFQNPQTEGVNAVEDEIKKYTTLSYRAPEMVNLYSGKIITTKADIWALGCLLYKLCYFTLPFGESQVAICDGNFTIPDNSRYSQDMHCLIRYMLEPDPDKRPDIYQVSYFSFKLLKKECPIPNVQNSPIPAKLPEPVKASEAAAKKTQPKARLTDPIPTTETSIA
Method: Compound stock solution (concentration: 10 mM, dissolved in DMSO) was diluted with DMSO to 0.2 mM and then diluted with DMSO in 5-fold gradient to obtain compound solutions with 10 concentrations. Subsequently, the compound solutions with different concentrations were diluted 50-fold in 1×kinase reaction buffer (containing 40 mM Tris, 20 mM MgCl2, 0.1% BSA and 0.5 mM DTT) for later use. AAK1 (Signalchem, Cat #A01-11G-10) was diluted with 1×kinase reaction buffer to 2-fold the final concentration (final concentrations: 30 nM and 28 nM). AAK1 was added to a 384-well white plate at 2 μL/well, and the compounds were then added at 1 μL/well. The plate was sealed with a plate-sealing film, centrifuged at 1000 rpm for 30 seconds and then placed at room temperature for 10 minutes. A mixed solution of ATP (Promega, Cat #V914B) and substrate Micro2 (GenScript, Cat #PE0890) was formulated at 4-fold the final concentration (for AAK1, the corresponding final concentrations of ATP: 15 μM and 5 μM, and the corresponding final concentration of Micro2: 0.1 mg/mL). To the reaction plate was added the mixed solution of ATP and the substrate at 1 μL/well. The plate was sealed with a plate-sealing film and centrifuged at 1000 rpm for 30 seconds. The reaction was carried out at room temperature for 60 minutes (AAK1). ADP-Glo (Promega, Cat #V9102) was transferred to the 384-well plate at 4 μL/well and centrifugation was carried out at 1000 rpm for 1 minute. The mixture was incubated at 25° C. for 40 minutes. A detection solution was transferred to the 384-well plate at 8 μL/well and centrifugation was carried out at 1000 rpm for 1 minute. The resulting mixture was incubated at 25° C. for 40 minutes. The RLU (Relative luminescence unit) signal values were read using a Biotek multilable microplate reader and the percent inhibition was calculated according to the following formula: [1−(LUMcompound−LUMpositive control)/(LUMnegative control−LUMpositive control)]×100. IC50 values were calculated using Graphpad 7.0 software using a four-parameter non-linear fit equation.

[3] = Mouse brain/blood ratio test; type: in vivo; details: ICR mice, i.g. (10 mg/kg); for Kp / AUC(0-t): male, mouse, po; for Kp: brain/plasma; for AUC(0-t): plasma, read-out: Plasma AUC0-t
Method: 5.1 Experimental animals: Male ICR mice, 20-25 g, 9 mice/compound. Purchased from Chengdu Ddossy Experimental Animals Co., Ltd.
5.2 Experimental design: on the day of the experiment, 18 ICR mice were randomly grouped according to their body weights. The animals were fasted with water available for 12 to 14 h one day before the administration, and were fed 4 h after the administration;
After intragastric administration, whole blood and brain tissue were collected at 0.5 h, 4 h and 24 h, and the whole blood was centrifuged to separate the plasma. The brain tissue was rinsed with cold physiological saline to remove the residual blood on the surface, drained out and then homogenized. Before analysis and detection, all samples were stored at −80° C. The samples were analyzed quantitatively by LC-MS/MS.

[4] = tested on: SNL-induced mouse model of neuropathic pain; experiment: Spinal nerve ligation (SNL)-induced mouse model of neuropathic pain, mechanical pain threshold (MPT); type: in vivo, C57BL/6J mice; details: for Time at which analgesic efficacy reached the peak after the administration / Effect on pain threshold (MPT) of mice after SNL modelling: 10 mg/kg intragastrically, single administration; for Effect on pain threshold (MPT) of mice after SNL modelling: 1, 3 and 6 hours after administration
Excerpt: Male C57BL/6J mice (8 weeks old) purchased from Jinan Pengyue Experimental Animal Breeding Co., Ltd. were adaptively raised for one week and then the models were established. The specific establishment method comprises the following steps: • 1) disinfecting the surgical instrument and ligature; • 2) anesthetizing the mice with isoflurane and then placing the mice on the operating table in the prone position; • 3) shaving the fur near the hip bones of the mice and preparing the skin, and making an incision of about 2 cm along the spine; • 4) isolating the fascia along the spine, performing blunt dissection of the muscles, and exposing the transverse process of L5; • 5) carefully cutting the transverse process of L5 with forceps and exposing the L5 spinal nerve; • 6) carefully isolating the L5 nerve with a glass dissecting needle, and ligating the L5 nerve with a 5-0 ligature; and • 7) suturing the muscles and skin and disinfecting same with iodophor.
The mice that were unsuccessful in modeling were eliminated the next day after modeling (marker for successful modeling: mice with their hind paws curled up). After modeling, the mice were stroked for 3 to 5 minutes every day to ensure that the animals were familiar with the experimenter, and then the mice were placed on a metal pain measuring frame for 40 to 60 minutes of adaptation. After 3 days of acclimatization, Von Frey filaments (Aesthesio®; 0.16 g, 0.4 g, 0.6 g, 1.0 g, 1.4 g and 2.0 g) were used to test the pre-administration baseline values of the animals (Ascending testing approach). Each animal was tested twice and average values were taken, with intervals of at least 5 minutes. The animals were grouped according to the baseline values (10 animals per group). After the grouping, LX-9211 (1 and 10 mg/kg), compound 3 (1 and 10 mg/kg) or vehicle (40% PEG-400+10% ethanol+15% Tween 80+35% physiological saline) were administered intragastrically. The mice were tested for the mechanical pain threshold (MPT) at 1, 3 and 6 hours after the administration. Time-MPT curve was plotted using GraphPad 8.3.0, and statistical analysis was performed.

[5] = Pharmacokinetic test in beagle dogs; type: in vivo; details: for AUC(0-t) / clearance / Vd: male, dog, plasma; for Vd: read-out: Vdss
Method: Experimental animals: male beagle dogs, about 8-11 kg, 6 beagle dogs/compound, purchased from Beijing Marshall Biotechnology Co., Ltd.
Experimental method: on the day of the experiment, 12 beagle dogs were randomly grouped according to their body weights. the animals were fasted with water available for 12 to 14 h one day before the administration, and were fed 4 h after the administration; and the administration was performed according to Table 2.
Before and after the administration, 1 ml of blood was taken from the jugular veins or limb veins, and placed in an EDTAK2 centrifuge tube. Centrifugation was performed at 5000 rpm at 4° C. for 10 min, and plasma was collected. Blood sampling time points for both the LX9211 intravenous administration group and intragastric administration group include: 0 min, 5 min, 15 min, 30 min, 1 h, 2 h, 4 h, 6 h, 8 h, 10 h, 12 h, and 24 h, and blood sampling time points for both the compound 19 intravenous administration group and intragastric administration group include: 0 min, 5 min, 15 min, 30 min, 1 h, 2 h, 4 h, 6 h, 8 h, 10 h, 12 h, 24 h, and 48 h. Before analysis and detection, all samples were stored at −80° C. The samples were analysed quantitatively by LC-MS/MS.

Row | Compound | IC50 [1] [µM] | inhibition at 40 µM [1] [%] | IC50 [2] [nM] | Brain tissue AUC0-t [3] [ng·h/g] | Kp [3] | AUC(0-t) [3] [ng·h/mL] | Time at which analgesic efficacy reached the peak after the administration [4] [h] | Effect on pain threshold (MPT) of mice after SNL modelling [4] | Analgesic efficacy compared with LX-9211 ([4]; 10 mg/kg, at 3 and 6 hours after the administration) | F ([5]; i.g. (3 mg/kg)) [%] | AUC(0-t) ([5]; iv, i.v. (1 mg/kg)) [ng·h/mL] | clearance ([5]; iv, i.v. (1 mg/kg)) [mL/min/kg] | Vd ([5]; iv, i.v. (1 mg/kg)) [L/kg] | AUC(0-t) ([5]; po, i.g. (3 mg/kg)) [ng·h/mL]
1 | C=C(C)C[C@](C)(N)COc1ccc(-c2ccnc(C(F)F)c2)nc1C(F)F [Compound 3, (S)-1-((2′,6-bis(difluoromethyl)-[2,4′-bipyridin]-5-yl)oxy)-2,4-dimethylpent-4-en-2-amine] | 8.75 | 86.6 ± 1.77 | 10.9 | 36853 | 64.5 | 572 | 3 | effectively increased the pain threshold | better efficacy than LX-9211 |  |  |  |  | 
2 | COC(=O)Nc1cc(-c2ccc(OC[C@@](C)(N)CC(C)(C)F)c(C(F)F)n2)ccn1 [Compound 19, Methyl (S)-(5-((2-amino-4-fluoro-2,4-dimethylpentyl)oxy)-6-(difluoromethyl) [2,4′-bipyridin]-2′-yl)carbamate] | 24.1 | 68.9 ± 1.8 | 37.7 |  |  |  |  |  |  | 113 ± 6.9 | 398 ± 94 | 39.8 ± 10 | 23.6 ± 3.8 | 1350 ± 83
3 | CC(C)C[C@](C)(N)COc1ccc(-c2ccnc(C(F)F)c2)nc1C(F)F [LX-9211, reference compound] | 1.82 | 102 ± 4.08 |  | 110424 | 16.6 | 6640 | 1 | effectively increased the pain threshold |  | 22.2 ± 8.1 | 751 ± 204 | 22.2 ± 7.7 | 9.08 ± 1.4 | 500 ± 183
